Values joined by “and” are separate entries in the source; they are usually repeats but may differ in a detail not shown here. Equal values may be shown once. Toxic doses and inconclusive results are not listed. No stated cut-off is given here; in the data, active means T/C of 150% or more; inactive means T/C below 125%.
Tested on: L1210 leukemia ip in BDF1 mice, survival T/C
Experiment: NCI In Vivo Anticancer Drug Screen. Data for tumor model L1210 Leukemia (intraperitoneal) in B6D2F1 (BDF1) mice
Conditions: endpoint: mean survival time, higher = longer survival
Summary of the method: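 Mice bearing the transplanted tumor received compound or vehicle. Survival of the treated group was divided by that of the vehicle-treated control group to give the ratio.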

[1] = dose: 100.0 mg/kg/injection, schedule: Q01DX009 (ip), vehicle: Klucel (hydroxypropylcellulose) (HPC)
[2] = dose: 200.0 mg/kg/injection, schedule: Q01DX009 (ip), vehicle: Klucel (hydroxypropylcellulose) (HPC)
[3] = dose: 400.0 mg/kg/injection, schedule: Q01DX009 (ip), vehicle: Klucel (hydroxypropylcellulose) (HPC)
[4] = dose: 100.0 mg/kg/injection, schedule: Q04DX002 (ip), vehicle: saline
[5] = dose: 200.0 mg/kg/injection, schedule: Q04DX002 (ip), vehicle: saline
[6] = dose: 100.0 mg/kg/injection, schedule: Q01DX001 (ip), vehicle: saline
[7] = dose: 100.0 mg/kg/injection, schedule: Q04DX003 (ip), vehicle: saline
[8] = dose: 200.0 mg/kg/injection, schedule: Q01DX001 (ip), vehicle: saline
[9] = dose: 200.0 mg/kg/injection, schedule: Q04DX003 (ip), vehicle: saline
[10] = dose: 400.0 mg/kg/injection, schedule: Q01DX001 (ip), vehicle: saline
[11] = dose: 400.0 mg/kg/injection, schedule: Q04DX003 (ip), vehicle: saline
[12] = dose: 100.0 mg/kg/injection, schedule: Q01DX009 (ip), vehicle: saline
[13] = dose: 100.0 mg/kg/injection, schedule: Q04DX003 (ip), vehicle: Klucel (hydroxypropylcellulose) (HPC)
[14] = dose: 200.0 mg/kg/injection, schedule: Q04DX003 (ip), vehicle: Klucel (hydroxypropylcellulose) (HPC)
[15] = dose: 400.0 mg/kg/injection, schedule: Q04DX003 (ip), vehicle: Klucel (hydroxypropylcellulose) (HPC)
[16] = dose: 100.0 mg/kg/injection, schedule: Q04DX003 (ip), vehicle: saline with Tween-80
[17] = dose: 400.0 mg/kg/injection, schedule: Q04DX003 (ip), vehicle: saline with Tween-80
[18] = dose: 200.0 mg/kg/injection, schedule: Q04DX003 (ip), vehicle: saline with Tween-80

Measured: T/C

CCCCCCCN(CCCCCCC)CCC(=O)c1ccc2cc(Br)c3ccccc3c2c1
inactive: dose: 55.0 mg/kg/injection, schedule: Q01DX Z (ip), vehicle: methylcellulose (MC) 97 % of control | dose: 83.0 mg/kg/injection, schedule: Q01DX Z (ip), vehicle: methylcellulose (MC) 86 % of control | dose: 125.0 mg/kg/injection, schedule: Q01DX Z (ip), vehicle: methylcellulose (MC) 97 % of control

C=CCc1cc(CN2CCOCC2)c(O)c(OC)c1
inactive: [1] 98 % of control | dose: 100.0 mg/kg/injection, schedule: Q04DX002 (ip), vehicle: Klucel (hydroxypropylcellulose) (HPC) 101 % of control and 108 % of control | [2] 97 % of control | dose: 200.0 mg/kg/injection, schedule: Q04DX002 (ip), vehicle: Klucel (hydroxypropylcellulose) (HPC) 89 % of control | [3] 103 % of control | dose: 400.0 mg/kg/injection, schedule: Q04DX002 (ip), vehicle: Klucel (hydroxypropylcellulose) (HPC) 107 % of control

CONS(=O)c1ccc([N+](=O)[O-])cc1 (centres undefined)
inactive: [1] 98 % of control | [2] 96 % of control | [3] 100 % of control

O=C(c1ccccc1)c1ccccc1O
inactive: dose: 50.0 mg/kg/injection, schedule: Q01DX001 (ip), vehicle: other 90 % of control | dose: 100.0 mg/kg/injection, schedule: Q01DX001 (ip), vehicle: other 93 % of control | dose: 200.0 mg/kg/injection, schedule: Q01DX001 (ip), vehicle: other 101 % of control | dose: 400.0 mg/kg/injection, schedule: Q01DX001 (ip), vehicle: other 95 % of control

Cc1cn(C2CC(O)C(COP(=O)(N3CC3(C)C)N3CC3(C)C)O2)c(=O)[nH]c1=O (centres undefined)
inactive: dose: 50.0 mg/kg/injection, schedule: Q04DX002 (ip), vehicle: saline 94 % of control | [4] 105 % of control | [5] 123 % of control

Cc1nnnn1C
inactive: [6] 95 % of control | [7] 105 % of control | [8] 108 % of control | [9] 107 % of control | [10] 97 % of control | [11] 88 % of control

O=C1c2cccc3cc([N+](=O)[O-])cc(c23)C(=O)N1Cc1cccnc1
inactive: dose: 100.0 mg/kg/injection, schedule: Q04DX003 (ip), vehicle: carboxymethylcellulose (CMC) 93 % of control | dose: 200.0 mg/kg/injection, schedule: Q04DX003 (ip), vehicle: carboxymethylcellulose (CMC) 90 % of control | dose: 400.0 mg/kg/injection, schedule: Q04DX003 (ip), vehicle: carboxymethylcellulose (CMC) 97 % of control

BrCCCCCCCCCCC1(c2ccccc2)OCCO1
inactive: [1] 107 % of control | [2] 98 % of control | [3] 93 % of control

CC(=O)OCC(=O)C1CCC=CC1OC(C)=O (centres undefined)
inactive: [12] 105 % of control | [7] 93 % of control | dose: 200.0 mg/kg/injection, schedule: Q01DX009 (ip), vehicle: saline 105 % of control | [9] 91 % of control | dose: 400.0 mg/kg/injection, schedule: Q01DX009 (ip), vehicle: saline 98 % of control | [11] 91 % of control

O=C(O)COC1CCC(Cl)CC1 (centres undefined)
inactive: dose: 100.0 mg/kg/injection, schedule: Q01DX009 (ip), vehicle: saline with Tween-80 106 % of control | dose: 100.0 mg/kg/injection, schedule: Q04DX003 (ip), vehicle: acetone 101 % of control | dose: 200.0 mg/kg/injection, schedule: Q01DX009 (ip), vehicle: saline with Tween-80 94 % of control | dose: 200.0 mg/kg/injection, schedule: Q04DX003 (ip), vehicle: acetone 95 % of control | dose: 400.0 mg/kg/injection, schedule: Q01DX009 (ip), vehicle: saline with Tween-80 96 % of control | dose: 400.0 mg/kg/injection, schedule: Q04DX003 (ip), vehicle: acetone 91 % of control

CC(C)OC(=O)Nc1cccc(NC(=O)OCCCl)c1
inactive: dose: 100.0 mg/kg/injection, schedule: Q04DX002 (ip), vehicle: saline with Tween-80 97 % of control | dose: 200.0 mg/kg/injection, schedule: Q04DX002 (ip), vehicle: saline with Tween-80 101 % of control | dose: 400.0 mg/kg/injection, schedule: Q04DX002 (ip), vehicle: saline with Tween-80 97 % of control

N#CC(Cl)(Cl)C(N)=O
inactive: dose: 12.5 mg/kg/injection, schedule: Q04DX002 (ip), vehicle: saline 88 % of control

CCOC(=O)c1ccc2c3c(ccc([N+](=O)[O-])c13)CC2
inactive: dose: 50.0 mg/kg/injection, schedule: Q01DX001 (ip), vehicle: saline 98 % of control | [6] 104 % of control | [8] 101 % of control | [10] 98 % of control

C1C2CC3C1C3/C2=N\N=C1/C2CC3C(C2)C13
inactive: dose: 75.0 mg/kg/injection, schedule: Q01DX001 (ip), vehicle: saline 101 % of control | dose: 150.0 mg/kg/injection, schedule: Q01DX001 (ip), vehicle: saline 89 % of control | dose: 300.0 mg/kg/injection, schedule: Q01DX001 (ip), vehicle: saline 98 % of control

CCN(CC)Cc1ccc([N+](=O)[O-])cc1
inactive: [4] 110 % of control | [5] 104 % of control

O=C1CSc2cc[nH]c21
inactive: [1] 95 % of control | [13] 100 % of control | [14] 95 % of control | [15] 98 % of control

FC(F)(F)c1cccc(P(c2cccc(C(F)(F)F)c2)c2ccccc2C(F)(F)F)c1
inactive: [16] 95 % of control | [17] 87 % of control

Cc1cccc(-c2nc3cc(Cl)ccc3c(=O)o2)c1
inactive: [13] 97 % of control | [14] 90 % of control

COC1/C=C/OC2(C)Oc3c(C)c(O)c4c(O)c(c(C=NOC(c5ccccc5)c5ccccc5)c(O)c4c3C2=O)NC(=O)/C(C)=C/C=C/C(C)C(O)C(C)C(O)C(C)C(OC(C)=O)C1C (centres undefined)
inactive: dose: 25.0 mg/kg/injection, schedule: Q04DX003 (ip), vehicle: water 102 % of control | dose: 50.0 mg/kg/injection, schedule: Q04DX003 (ip), vehicle: water 102 % of control | dose: 100.0 mg/kg/injection, schedule: Q04DX003 (ip), vehicle: water 96 % of control | dose: 200.0 mg/kg/injection, schedule: Q04DX003 (ip), vehicle: water 98 % of control

NC(CSCc1cc(=O)[nH]c(=O)[nH]1)C(=O)O (centres undefined)
inactive: [7] 97 % of control | [9] 97 % of control | [11] 95 % of control

Cc1ccc(C(C)C)cc1NC(=O)NCCCl
inactive: dose: 20.0 mg/kg/injection, schedule: Q04DX003 (ip), vehicle: Klucel (hydroxypropylcellulose) (HPC) 94 % of control | dose: 40.0 mg/kg/injection, schedule: Q04DX003 (ip), vehicle: Klucel (hydroxypropylcellulose) (HPC) 97 % of control | dose: 80.0 mg/kg/injection, schedule: Q04DX003 (ip), vehicle: Klucel (hydroxypropylcellulose) (HPC) 102 % of control | [13] 112 % of control | [14] 112 % of control

O=C(N=C1C=CC(=NC(=O)OCc2ccccc2)C=C1)OCc1ccccc1
inactive: [1] 98 % of control | [13] 92 % of control | [2] 100 % of control | [14] 88 % of control | [3] 100 % of control | [15] 90 % of control

ON=C1CCC(=NO)CC1
inactive: dose: 100.0 mg/kg/injection, schedule: Q01DX001 (ip), vehicle: saline with Tween-80 95 % of control | dose: 200.0 mg/kg/injection, schedule: Q01DX001 (ip), vehicle: saline with Tween-80 98 % of control | dose: 400.0 mg/kg/injection, schedule: Q01DX001 (ip), vehicle: saline with Tween-80 103 % of control

CCCCSc1cc(NS(=O)(=O)c2ccccc2)ccc1NS(=O)(=O)c1ccccc1
inactive: [16] 97 % of control | [18] 93 % of control | [17] 95 % of control

O=C(CCN1CCCCC1)c1ccc([N+](=O)[O-])cc1
inactive: [8] 103 % of control

CCNCCCN
inactive: dose: 25.0 mg/kg/injection, schedule: Q01DX009 (ip), vehicle: saline 97 % of control | dose: 25.0 mg/kg/injection, schedule: Q04DX003 (ip), vehicle: saline 115 % of control | dose: 50.0 mg/kg/injection, schedule: Q01DX009 (ip), vehicle: saline 101 % of control | dose: 50.0 mg/kg/injection, schedule: Q04DX003 (ip), vehicle: saline 115 % of control | [12] 103 % of control | [7] 93 % of control and 103 % of control

CC(C)(C)CC(C)(C)c1ccc(OCCOS(=O)(=O)c2cccc([N+](=O)[O-])c2)cc1
inactive: [16] 94 % of control | [18] 90 % of control

O=C(Nc1cccc(C(F)(F)F)c1)Oc1ccccc1F
inactive: [1] 91 % of control | [2] 92 % of control

Reference: PubChem BioAssay AID248 (DTP/NCI, 2004)
